How the values were obtained:
GABAA α2β3γ2 = target: T1, GABAA α2β3γ2 (Homo sapiens, UniProt P18507+P28472+P47869); assay: 35S-TBPS binding assay, HEK293 membranes with GABAA α2β3γ2 construct; conditions: 35S-TBPS 5 nM, GABA 1 μM, 2 hours at room temperature, read-out: α2β3γ2 (35S-TBPS binding, pIC50) (converted)
T1 construct: expressed in transfected cells; host or cells: HEK293
Protocol: (§1) The binding assay is based on the assay reported by K. Gee et al., Eur. J. Pharmacol. 1987, 136, 419-423.
(§2) Homogenate preparation: Membrane preparations of HEK293 cells containing either GABAA α1β2γ2 or GABAA α2β3γ2 constructs were performed according to a modified procedure previously described by Gee et al. (supra). Whole HEK 293 cells in D-PBS (calcium/magnesium free) buffer adjusted to pH 7.4 were centrifuged at 7,280×g for 20 m. After discarding the supernatant, the pellet was resuspended in the buffer and centrifuged at 1,820×g for 10 m. Afterwards, the supernatant was discarded and the pellet resuspended in ice-cold preparation buffer (50 mM Tris HCl pH 7.4, 4° C. and 150 mM KCl), homogenized for 30 sec using a Brinkmann Polytron PT3000 (setting 6) and centrifuged at 48,000×g for 30 m at 4° C. The centrifugation and homogenization procedure was repeated two more times for a total of 3 times before resuspending the membranes at a final protein concentration of 0.5 mg/mL. Aliquots (30 mL) of the final membrane preparation were then centrifuged at 48,000×g for 30 m, and the resulting pellets were stored at −80° C. until required.
(§3) 35S-TBPS binding assay. Membrane pellets containing either GABAA α1β2γ2 or GABAA α2β3γ2 constructs were thawed on ice, resuspended in 10 mL of 50 mM Tris HCl pH7.4, 4° C. and 150 mM KCl and centrifuged at 48,000×g, 30 m at 4° C. After discarding the supernatant, the pellet was resuspended in 30 mL incubation buffer (50 mM Tris HCl pH 7.4, 25° C. and 150 mM KCl) at approximately 0.5 mg/mL protein concentration. In 35S-TBPS competition studies, HEK293 membranes were incubated with 35S-TBPS (5 nM final) and GABA (1 μM) in the absence or presence of competitor at concentrations ranging from 0.01 nM to 10 μM in 125 μL incubation buffer for 2 hours at room temperature (˜22° C.). Non-specific binding was assayed with picrotoxin (100 μM final concentration). The binding reaction was terminated by vacuum filtration through GF/B filters previously soaked in 0.1% polyethylenimine followed by 3×1 mL washes with ice cold wash buffer (50 mM Tris HCl pH7.4, 4° C. and 150 mM KCl). Measurement of bound radioactivity was performed using a Packard Microplate 96 well topcount scintillation counter. Analysis of competition curves and estimation of pIC50 values of test compounds were performed using the software programs ActivityBase and/or Prism (version 3.0).

GABAA α1β2γ2 = target: T2, GABAA α1β2γ2 (Homo sapiens, UniProt P14867+P18507+P47870); assay: 35S-TBPS binding assay, HEK293 membranes with GABAA α1β2γ2 construct; conditions: 35S-TBPS 5 nM, GABA 1 μM, 2 hours at room temperature, read-out: α1β2γ2 (35S-TBPS binding, pIC50) (converted)
T2 construct: expressed in transfected cells; host or cells: HEK293
T2 sequence (P14867 28-456): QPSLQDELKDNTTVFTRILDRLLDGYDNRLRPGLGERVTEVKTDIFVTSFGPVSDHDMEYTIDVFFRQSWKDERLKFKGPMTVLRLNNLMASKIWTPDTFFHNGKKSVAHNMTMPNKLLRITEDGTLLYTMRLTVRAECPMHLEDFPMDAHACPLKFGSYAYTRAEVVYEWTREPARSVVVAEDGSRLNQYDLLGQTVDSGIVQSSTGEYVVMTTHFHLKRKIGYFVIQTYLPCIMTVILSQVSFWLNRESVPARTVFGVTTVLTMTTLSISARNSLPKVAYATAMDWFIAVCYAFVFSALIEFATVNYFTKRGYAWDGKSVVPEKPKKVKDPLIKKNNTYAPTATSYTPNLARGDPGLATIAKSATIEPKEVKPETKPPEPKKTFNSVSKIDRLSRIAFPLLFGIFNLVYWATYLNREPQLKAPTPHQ
T2 sequence (P47870 25-512 limits assumed): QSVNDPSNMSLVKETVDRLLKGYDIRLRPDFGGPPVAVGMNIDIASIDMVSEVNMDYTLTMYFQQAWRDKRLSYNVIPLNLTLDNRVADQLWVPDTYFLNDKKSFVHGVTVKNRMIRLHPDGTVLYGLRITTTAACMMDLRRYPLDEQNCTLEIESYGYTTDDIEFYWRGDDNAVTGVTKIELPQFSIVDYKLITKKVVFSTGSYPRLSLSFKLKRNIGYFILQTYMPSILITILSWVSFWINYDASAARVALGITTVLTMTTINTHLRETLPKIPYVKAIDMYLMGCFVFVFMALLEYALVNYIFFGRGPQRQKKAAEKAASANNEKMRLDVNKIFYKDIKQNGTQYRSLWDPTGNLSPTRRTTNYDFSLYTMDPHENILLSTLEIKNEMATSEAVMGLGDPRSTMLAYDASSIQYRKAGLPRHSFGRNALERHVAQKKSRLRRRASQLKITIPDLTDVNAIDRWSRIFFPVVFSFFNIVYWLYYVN
T2 sequence (P18507 40-475): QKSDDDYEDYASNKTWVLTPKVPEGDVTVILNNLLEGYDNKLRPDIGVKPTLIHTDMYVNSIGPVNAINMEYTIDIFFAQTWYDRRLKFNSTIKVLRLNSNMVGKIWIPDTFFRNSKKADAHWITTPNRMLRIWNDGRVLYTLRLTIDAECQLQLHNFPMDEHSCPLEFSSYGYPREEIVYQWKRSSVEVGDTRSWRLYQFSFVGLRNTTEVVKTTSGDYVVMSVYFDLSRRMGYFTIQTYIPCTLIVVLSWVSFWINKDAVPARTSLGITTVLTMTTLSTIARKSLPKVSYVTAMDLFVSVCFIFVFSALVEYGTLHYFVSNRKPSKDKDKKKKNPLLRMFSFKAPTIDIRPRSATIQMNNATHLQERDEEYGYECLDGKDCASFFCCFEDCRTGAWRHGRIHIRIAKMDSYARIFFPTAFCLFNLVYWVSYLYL
Protocol: as §1, §2, §3

T1 sequence (P47869 29-451): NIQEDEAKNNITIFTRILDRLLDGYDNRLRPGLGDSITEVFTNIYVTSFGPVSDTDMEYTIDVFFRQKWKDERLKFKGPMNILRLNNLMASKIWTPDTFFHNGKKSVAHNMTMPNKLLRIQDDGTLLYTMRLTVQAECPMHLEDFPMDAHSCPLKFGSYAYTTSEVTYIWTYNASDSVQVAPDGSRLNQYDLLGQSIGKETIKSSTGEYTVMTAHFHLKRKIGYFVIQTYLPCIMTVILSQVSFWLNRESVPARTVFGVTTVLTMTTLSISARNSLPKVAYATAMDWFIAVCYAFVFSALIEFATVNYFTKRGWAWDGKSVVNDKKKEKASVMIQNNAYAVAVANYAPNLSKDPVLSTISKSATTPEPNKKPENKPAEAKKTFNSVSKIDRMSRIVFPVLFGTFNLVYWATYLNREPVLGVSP
T1 sequence (P28472 26-473): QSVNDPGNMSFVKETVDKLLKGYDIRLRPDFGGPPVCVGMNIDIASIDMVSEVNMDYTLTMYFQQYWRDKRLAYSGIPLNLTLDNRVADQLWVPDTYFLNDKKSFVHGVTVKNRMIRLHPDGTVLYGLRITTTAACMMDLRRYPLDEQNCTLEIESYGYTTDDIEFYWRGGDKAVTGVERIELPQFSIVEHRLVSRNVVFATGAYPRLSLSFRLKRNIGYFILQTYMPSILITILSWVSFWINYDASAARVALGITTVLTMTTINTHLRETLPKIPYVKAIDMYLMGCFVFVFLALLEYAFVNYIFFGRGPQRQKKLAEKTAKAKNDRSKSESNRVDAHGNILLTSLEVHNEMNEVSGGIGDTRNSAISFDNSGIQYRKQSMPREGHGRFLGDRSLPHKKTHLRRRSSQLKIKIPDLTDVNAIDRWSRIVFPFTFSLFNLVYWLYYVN
T1 sequence (P18507 40-475): as the sequence (P18507 40-475) above

SMILES	IC50 (GABAA α2β3γ2) [µM]	melting point [°C]	IC50 (GABAA α1β2γ2) [µM]
Cn1nnc(Cc2c3cccc(-c4ccc(Cl)cc4Cl)c3nn2C)n1 [I-33, 7-(2,4-Dichloro-phenyl)-2-meth-yl-3-(2-methyl-2H-tetra-zol-5-ylmethyl)-2H-inda-zole]	0.102	158.8 to 160.5	1.48
Cn1nc2c(-c3ccc(Cl)cc3Cl)cccc2c1Cc1nnn(CS(C)(=O)=O)n1 [I-12, 7-(2,4-Dichloro-phenyl)-3-(2-meth-anesulfonylmethyl-2H-tetra-zol-5-ylmethyl)-2-meth-yl-2H-indazole]	0.269	156.6 to 157.8	1.15
Cn1nc2c(-c3ccc(Cl)cc3Cl)cccc2c1CCc1ncn[nH]1 [I-34, 7-(2,4-Dichloro-phenyl)-2-meth-yl-3-[2-(2H-[1,2,4]tri-azol-3-yl)-ethyl]-2H-inda-zole]	0.309	92 to 115.5	9.55
Cn1nnnc1Cc1c2cccc(-c3ccc(Cl)cc3Cl)c2nn1C [I-20, 7-(2,4-Dichloro-phenyl)-2-meth-yl-3-(1-methyl-1H-tetra-zol-5-ylmethyl)-2H-inda-zole]	1.7	183.9 to 185.4	
Cn1nc2c(-c3ccc(Cl)cc3Cl)cccc2c1Cc1nc[nH]n1 [I-31, 7-(2,4-Dichloro-phenyl)-2-meth-yl-3-(1H-[1,2,4]triazol-3-yl-methyl)-2H-indazole]	0.355	206.3 to 207	4.17
Cn1nc2c(-c3ccc(Cl)cc3Cl)cccc2c1-n1cnnc1 [I-23, 7-(2,4-Dichloro-phenyl)-2-meth-yl-3-[1,2,4]triazol-4-yl-2H-inda-zole]	4.07	117.9 to 121.3	> 10
Cn1nc2c(-c3ccc(Cl)cc3Cl)cccc2c1CN1CCOC1=O [I-8, 3-[7-(2,4-Dichloro-phenyl)-2-meth-yl-2H-indazol-3-yl-methyl]-oxazolidin-2-one]	1.51	165.9 to 167.5	6.31
Cn1nc2c(-c3ccc(Cl)cc3Cl)cccc2c1Cc1nnnn1CCO [I-10, 2-{5-[7-(2,4-Dichloro-phenyl)-2-methyl-2H-inda-zol-3-ylmethyl]-tetrazol-1-yl}-eth-anol]	0.398	66.1 to 87.2	> 10
Cn1nc2c(-c3ccc(Cl)cc3Cl)cccc2c1C(=O)c1nnn[nH]1 [I-18, [7-(2,4-Dichloro-phenyl)-2-meth-yl-2H-indazol-3-yl]-(1H-tetra-zol-5-yl)-methanone]	0.11	209.8 to 210.3	0.933
Cn1nc2c(-c3ccc(Cl)cc3Cl)cccc2c1Cc1nnn[nH]1 [I-53, 7-(2,4-Dichloro-phenyl)-2-meth-yl-3-(1H-tetrazol-5-yl-methyl)-2H-indazole]	0.234	270.1 to 275.5	2.24
Cn1nc2c(-c3ccc(Cl)cc3Cl)cccc2c1-c1cnco1 [I-51, 7-(2,4-Dichloro-phenyl)-2-meth-yl-3-oxazol-5-yl-2H-inda-zole]	0.166	167.5 to 169.5	3.02
Cc1noc(-c2c3cccc(-c4ccc(Cl)cc4Cl)c3nn2C)n1 [I-50, 7-(2,4-Dichloro-phenyl)-2-meth-yl-3-(3-methyl-[1,2,4]oxa-diazol-5-yl)-2H-inda-zole]	0.676	178 to 178.5	> 10
Cn1nc2c(-c3ccc(Cl)cc3Cl)cccc2c1C1=NCCO1 [I-48, 7-(2,4-Dichloro-phenyl)-3-(4,5-di-hydro-oxazol-2-yl)-2-meth-yl-2H-indazole]	0.468	162.2 to 167.1	> 10
Cn1nc2c(-c3ccc(Cl)cc3Cl)cccc2c1C1=NCCN1 [I-41, 7-(2,4-Dichloro-phenyl)-3-(4,5-di-hydro-1H-imidazol-2-yl)-2-meth-yl-2H-indazole]	4.68	212.8 to 214.5	> 10
Cn1nc2c(-c3ccc(Cl)cc3Cl)cccc2c1-n1ccnc1 [I-22, 7-(2,4-Dichloro-phenyl)-3-imi-dazol-1-yl-2-methyl-2H-inda-zole]	0.355	63.2 to 89.4	3.16
Cn1nc2c(-c3ccc(Cl)cc3Cl)cccc2c1Cc1nnn(CCO)n1 [I-11, 2-{5-[7-(2,4-Dichloro-phenyl)-2-methyl-2H-inda-zol-3-ylmethyl]-tetrazol-2-yl}-eth-anol]	0.347	147.7 to 151.1	1.51
Cn1nc2c(-c3ccc(Cl)cc3Cl)cccc2c1-c1nnco1 [I-39, 7-(2,4-Dichloro-phenyl)-2-meth-yl-3-[1,3,4]oxadiazol-2-yl-2H-inda-zole]	2.82	199 to 201.2	> 10
Cn1nc2c(-c3ccc(Cl)cc3Cl)cccc2c1CCc1nnn[nH]1 [I-46, 7-(2,4-Dichloro-phenyl)-2-meth-yl-3-[2-(1H-tetrazol-5-yl)-eth-yl]-2H-indazole]	0.603	209.4 to 210.3	0.479
Cn1nc2c(-c3ccc(Cl)cc3Cl)cccc2c1CCC1=NCCN1 [I-38, 7-(2,4-Dichloro-phenyl)-3-[2-(4,5-di-hydro-1H-imidazol-2-yl)-eth-yl]-2-methyl-2H-inda-zole]	> 10	60.5 to 65.1	> 10
Cn1nc2c(-c3ccc(Cl)cc3Cl)cccc2c1C(=O)c1ncn[nH]1 [I-15, [7-(2,4-Dichloro-phenyl)-2-meth-yl-2H-indazol-3-yl]-(2H-[1,2,4]tri-azol-3-yl)-meth-anone]	0.331	283.9 to 284.9	> 10
Cn1nc2c(-c3ccc(Cl)cc3Cl)cccc2c1/C=C/c1nnn[nH]1 [I-47, 7-(2,4-Dichloro-phenyl)-2-meth-yl-3-[(E)-2-(1H-tetra-zol-5-yl)-vinyl]-2H-inda-zole]	0.151	256.8 to 258.1	1.2
